Data on eight compounds can be found in EP4702986A1, “POLYPEPTIDE AND USE THEREOF” (Biocells (Beijing) Biotech Co., Ltd., priority 2023, dated 2024).

One data set addresses T1, rat ETB receptor (Rattus norvegicus, UniProt P21451).
T1 construct: expressed in transfected cells
T1 sequence (P21451 27-442): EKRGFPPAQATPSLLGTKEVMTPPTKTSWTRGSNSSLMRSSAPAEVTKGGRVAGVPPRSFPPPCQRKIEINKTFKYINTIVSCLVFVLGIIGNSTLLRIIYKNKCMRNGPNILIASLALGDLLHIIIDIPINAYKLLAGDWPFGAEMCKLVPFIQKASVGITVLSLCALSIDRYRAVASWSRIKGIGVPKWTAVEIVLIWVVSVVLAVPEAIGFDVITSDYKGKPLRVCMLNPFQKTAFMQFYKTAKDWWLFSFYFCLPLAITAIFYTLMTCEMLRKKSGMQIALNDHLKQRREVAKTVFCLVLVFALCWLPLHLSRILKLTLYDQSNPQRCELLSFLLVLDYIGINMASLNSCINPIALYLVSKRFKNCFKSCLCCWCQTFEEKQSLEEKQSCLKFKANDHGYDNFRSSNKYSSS
Description: Determination of EC50s of polypeptides against rat ETB receptor. The data set is classed as cell-based. The conditions noted are these: Table 8, rat ETB receptor; for EC50: read-out: DETAR Agonist Activity EC50. On the procedure:
(§1) 293T-17 cells were seeded at a density of 650,000 cells per well in a 6-well plate and cultured overnight in an incubator at 37°C and 5% CO2. Afterward, the cells were transfected with an expression vector, PCDNA3.1-hETB which contained a human ETB receptor gene, at a plasmid concentration of 2.5 µg per well. The cells were further cultured for 48 hours, and green fluorescence expression was observed under a fluorescence microscope. The cells were then digested with trypsin and counted. The activity of compounds on the human ETB receptor was determined with the IP-One Gq kit from Cisbio Bioassays. The cells were suspended in Stim Buffer provided in the kit and the cell suspension was added to a 96-well detection plate at 7 µL cell suspension (containing 30,000 cells) per well. The polypeptides to be tested (prepared according to the Preparation Example of the invention) were diluted in Stim B to obtain a gradient of 11 concentration points. For each concentration point, the polypeptides to be tested were dissolved in Stim B to be at a concentration of 2×, and added at 7 µL to the test cells, while 7 µL of PBS solution was added to the cells in the negative control wells. The plate was sealed and incubated at 37°C for 1 hour in a cell culture incubator. Detection wells, positive control wells containing human endothelin ET1 (ET1: […] (C1-C15,C3-C11)), and PBS control wells were each added with 3 µL of IP1 d2 working solution and 3 µL of IP1 Tb cryptotate Antibody working solution. The plate was then sealed and incubated in the dark at room temperature (25°C±5°C) for 1 hour. The plate seal was removed, and the […] at 665 nm and 620 nm was measured with an ID5 microplate reader. The ratio of the acceptor emission signal to the donor emission signal, i.e., (signal at 665 nm/signal at 620 nm)×10^4, was calculated for each well. With F representing the average value of values of signal at 665 nm/signal at 620 nm for the test samples at various concentrations, a scatterplot was plotted, where the abscissa represented the F value, and the ordinate represented the logarithmic value of the peptide concentration. A curve was fitted with an appropriate method to calculate EC50 values of the polypeptides against the human ETB receptor. Another method was provided for fitting a curve where activation rate of the test polypeptides at each concentration relative to the positive control sample human endothelin ET1 was calculated first with the method in Example 1, and a scatterplot was plotted, where the abscissa represented the activation rate, and the ordinate represented the logarithmic value of the polypeptide concentration. A curve was fitted with an appropriate method to calculate the EC50 values of the polypeptides against the human ETB receptor.
The process is the same as that in Example 3, except that the transfected plasmid was expression vector PCDNA3.1-RETB which contained a rat ETB receptor gene. EC50 values of the polypeptides against the rat ETB receptor were calculated (see Figures 11-13). The sequence of the rat ETB receptor (NCBI accession number: X57764.1).

The target of another data set is T2, dog ETB receptor (Canis lupus familiaris, UniProt P56497).
T2 construct: expressed in transfected cells
T2 sequence (P56497 27-442): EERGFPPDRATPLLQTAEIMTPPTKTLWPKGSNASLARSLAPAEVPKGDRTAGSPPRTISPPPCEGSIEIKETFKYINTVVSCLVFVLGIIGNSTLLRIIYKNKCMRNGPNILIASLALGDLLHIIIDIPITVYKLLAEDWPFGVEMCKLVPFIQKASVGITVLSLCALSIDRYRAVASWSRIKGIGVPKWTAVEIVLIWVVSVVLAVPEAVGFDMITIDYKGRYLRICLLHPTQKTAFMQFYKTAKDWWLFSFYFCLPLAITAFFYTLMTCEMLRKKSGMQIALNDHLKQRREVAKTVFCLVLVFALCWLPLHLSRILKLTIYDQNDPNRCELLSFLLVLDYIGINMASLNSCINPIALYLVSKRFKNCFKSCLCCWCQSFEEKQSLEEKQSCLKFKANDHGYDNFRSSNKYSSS
Description: Determination of EC50s of polypeptides against dog ETB receptor. The data set is classed as cell-based. The conditions noted are these: Table 7, dog ETB receptor; for EC50: read-out: DETAR Agonist Activity EC50. As to the method:
as §1
The process is the same as that in Example 3, except that the transfected plasmid was expression vector PCDNA3.1-DETB which contained a dog ETB receptor gene. EC50 values of the polypeptide against the dog ETB receptor were calculated (see Figures 8-10). The sequence of the dog endothelin receptor B (NCBI accession number: NM_001010943.2).

A short description of data set [1]: Determination of half-lives of polypeptides (plasma, LC-MS). The conditions noted are these: for half-life: C57 BL/6, mouse, plasma, iv; for AUClast 0-30 min: C57 BL/6 mice, i.v., dosage per compound 0.48, 0.96 or 1 mpk.

Numbered stars: 1 amine (or outer) side, 2 acyl side, 3 side chain; on linkers, the order of the positions; unused ones are H or OH. Side chains are listed from the residue outwards. Ends that are not written are not given here. Peptide text beside a SMILES is read from it. * marks the point of attachment. X1 = C[C@H](NC(=O)[C@@H]1CCCN1C(=O)[C@@H](N)CSC1CC(=O)N(CCC(=O)*)C1=O)C(=O)N[C@@H](CCCCN)C(=O)O; C18 diacid = O=C(O)CCCCCCCCCCCCCCCCC(=O)*; γGlu = O=C(O)[C@H](CCC(=O)[*:2])N[*:1]; Fumaroyl = O=C(O)/C=C/C(=O)*; Suc = O=C(CCC(=O)[*:2])[*:1]; Lauroyl = CCCCCCCCCCCC(=O)*; AEEA = NCCOCCOCC(=O)O

Regarding Fum-DEEEVYFAHOrnDIIW [BX-59], the “DETAR Agonist Activity, %” value is reported as 314.15%@10n M on rat ETB receptor (@10nM), 46.94%@100n M at rat ETB receptor (@100nM), 14.7%@10n M on dog ETB receptor (@10nM) and 117.46%@1 00nM at dog ETB receptor (@100nM).
Consider `CC[C@H](C)[C@H](NC(=O)[C@H](CC(=O)O)NC(=O)[C@H](CCCCNC(=O)COCCOCCNC(=O)CCN1C(=O)CC(SC[C@H](N)C(=O)N2CCC[C@H]2C(=O)N[C@@H](C)C(=O)N[C@@H](CCCCN)C(=O)O)C1=O)NC(=O)[C@H](Cc1c[nH]cn1)NC(=O)[C@H](C)NC(=O)[C@H](Cc1ccccc1)NC(=O)[C@H](Cc1ccc(O)cc1)NC(=O)[C@@H](NC(=O)[C@H](C)NC(=O)[C@H](CCC(=O)O)NC(=O)[C@H](CCC(=O)O)NC(=O)[C@H](CC(=O)O)NC(=O)/C=C/C(=O)O)C(C)C)C(=O)N[C@H](C(=O)N[C@@H](Cc1c[nH]c2ccccc12)C(=O)O)[C@@H](C)CC` (stereo partly drawn) [BX-95] (Fumaroyl-DEEAVYFAHK([AEEA-X1])DIIW-OH), for which the EC50 at rat ETB receptor came out at 24 nM; at dog ETB receptor, 69.1 nM.
The like results for `CCCCCCCCCCCC(=O)N[C@@H](CCC(=O)NCCOCCOCC(=O)NCCCC[C@H](NC(=O)[C@H](Cc1c[nH]cn1)NC(=O)[C@H](C)NC(=O)[C@H](Cc1ccccc1)NC(=O)[C@H](Cc1ccc(O)cc1)NC(=O)[C@@H](NC(=O)[C@H](C)NC(=O)[C@H](CCC(=O)O)NC(=O)[C@H](CCC(=O)O)NC(=O)[C@H](CC(=O)O)NC(=O)/C=C/C(=O)O)C(C)C)C(=O)N[C@@H](CC(=O)O)C(=O)N[C@H](C(=O)N[C@H](C(=O)N[C@@H](Cc1c[nH]c2ccccc12)C(=O)O)[C@@H](C)CC)C(C)C)C(=O)O` [BX229-Na] (Fumaroyl-DEEAVYFAHK([AEEA-γGlu-Lauroyl])DVIW-OH) were, in that order, 7.22 nM and 17.9 nM.
`CC[C@H](C)[C@H](NC(=O)[C@H](CC(=O)O)NC(=O)[C@H](CC(C)C)NC(=O)[C@H](Cc1c[nH]cn1)NC(=O)[C@H](C)NC(=O)[C@H](Cc1ccccc1)NC(=O)[C@H](Cc1ccc(O)cc1)NC(=O)[C@@H](NC(=O)[C@H](C)NC(=O)[C@H](CCC(=O)O)NC(=O)[C@H](CCC(=O)O)NC(=O)[C@H](CC(=O)O)NC(=O)CCC(=O)O)C(C)C)C(=O)N[C@H](C(=O)N[C@@H](Cc1c[nH]c2ccccc12)C(=O)O)[C@@H](C)CC` [IRL1620, reference compound] (Suc-DEEAVYFAHLDIIW-OH): in data set [1], the half-life was < 2.6 min and the “AUClast 0-30 min” value was determined as 130 ng·h/mL.
The like results for `CC[C@H](C)[C@H](NC(=O)[C@H](CC(=O)O)NC(=O)[C@H](CCCCNC(=O)COCCOCCNC(=O)COCCOCCNC(=O)CC[C@H](NC(=O)CCCCCCCCCCCCCCCCC(=O)O)C(=O)O)NC(=O)[C@H](Cc1c[nH]cn1)NC(=O)[C@H](C)NC(=O)[C@H](Cc1ccccc1)NC(=O)[C@H](Cc1ccc(O)cc1)NC(=O)[C@@H](NC(=O)[C@H](C)NC(=O)[C@H](CCC(=O)O)NC(=O)[C@H](CCC(=O)O)NC(=O)[C@H](CC(=O)O)NC(=O)/C=C/C(=O)O)C(C)C)C(=O)N[C@H](C(=O)N[C@@H](Cc1c[nH]c2ccccc12)C(=O)O)[C@@H](C)CC` [BX-34] (Fumaroyl-DEEAVYFAHK([AEEA-AEEA-γGlu-C18 diacid])DIIW-OH) were, in that order, 63 min and 7736 ng·h/mL.
Turning to “Fum-DEEEVYFAHKDIIW (Fumaroyl-DEEEVYFAHKDIIW) [BX-52]”, the “DETAR Agonist Activity, %” value in the data set with rat ETB receptor (@10nM) came to 22.36%@10n M; in the data set with rat ETB receptor (@100nM) it was 389.09%@100 nM; with dog ETB receptor (@10nM) it was 76.82%@10 nM; in the data set with dog ETB receptor (@100nM), 104.49%@1 00nM.
With `CCCCCCCCCCCC(=O)N[C@@H](CCC(=O)NCCOCCOCC(=O)NCCCC[C@H](NC(=O)[C@H](Cc1c[nH]cn1)NC(=O)[C@H](C)NC(=O)[C@H](Cc1ccccc1)NC(=O)[C@H](Cc1ccc(O)cc1)NC(=O)[C@@H](NC(=O)[C@H](C)NC(=O)[C@H](CCC(=O)O)NC(=O)[C@H](CCC(=O)O)NC(=O)[C@H](CC(=O)O)NC(=O)/C=C/C(=O)O)C(C)C)C(=O)N[C@@H](CC(=O)O)C(=O)N[C@H](C(=O)N[C@H](C(=O)N[C@@H](Cc1c[nH]c2ccccc12)C(=O)O)[C@@H](C)CC)[C@@H](C)CC)C(=O)O` [BX-225] (Fumaroyl-DEEAVYFAHK([AEEA-γGlu-Lauroyl])DIIW-OH), in data set [1], the half-life is 37 min and the “AUClast 0-30 min” value was 4981 ng·h/mL.
Consider “Suc-DE cyclo(CEEC)YFAHKDIIW (Suc-DECEECYFAHKDIIW; not fully specified (bridges); printed as Suc-DE cyclo(CEEC)YFAHKDIIW; also: cyclo(CEEC) in N-terminal extension, bond type not given here) [BX-57]”, for which the “DETAR Agonist Activity, %” value with rat ETB receptor (@10nM) worked out at 67.42%; with rat ETB receptor (@100nM), 218.34%; with dog ETB receptor (@100nM), 49.81%.

What is called EC50 is the concentration at which the effect is half-maximal. As usually defined, the half-life is the time needed for the level to fall by half in the phase considered. A high value points to slow loss.
